We go through eleven compounds from patent publication US7001910B1, “Thiazolidinedione derivatives as antidiabetic agents” (Vita-Invest S.A., priority 1999, dated 2006).

The subject of experiment [1] is genetically diabetic C57 BL male db/db mice. Description: Plasma glucose reduction in genetically diabetic db/db mice after 5 days of oral treatment. The experiment is classed as in vivo. Conditions: Mus musculus, 120 h, 5 consecutive days, plasma glucose reduction vs basal level before treatment; for inhibition in vivo at 1 mg/kg: 1 mg/kg p.o.; for inhibition in vivo at 5 mg/kg: 5 mg/kg p.o.; for inhibition in vivo at 10 mg/kg: 10 mg/kg p.o. On the procedure:
The pharmacological effect of the compounds is assessed in genetically diabetic C57 BL male db/db 9–11 weeks old mice, as well as in control C57 BL db/+ animals of the same strain and age. […] In each experimental group, 8–10 animals are used, which are treated with different doses of the compounds: 1 mg/kg, 5 mg/kg, 10 mg/kg or 25 mg/kg orally during 5 consecutive days.
In the day 0 of the experiment, blood samples are collected in heparinized tubes by punction of the retroorbital vein. Plasma is separated and the levels of basal glucose and insulin are quantified.
After concluding the treatments, blood samples of each animal are collected again and plasmatic post-treatment glucose and insulin levels are quantified.
The determination of glucose is carried out by means of an enzymatic method that converts glucose into glucose 6-phosphate, a reaction coupled with the reduction of nicotinamide-dinucleotide phosphate (NADP) to NADPH by the action of glucose-6-P-dehydrogenase. The NADPH reduces the iodonitrotetrazolium, which is quantified spectrophotometrically. The absorbency at 520 nm is proportional to the concentration of glucose, ref: Randox GI, 2623 (Bergmeyer H. U., Bernt E., Schmidt F. H., Stork H. In Methods of Enzymatic Analysis, Academic Press: London and New York 1974, p. 1196).
The results are expressed as the reduction percent with regard to the basal levels determined before the beginning of the treatment.

Experiment [2] shares this test system. Described as above. Conditions: Mus musculus, 120 h, 100 mg/kg p.o., 5 consecutive days, plasma glucose reduction vs basal level before treatment. The experiment is classed as in vivo.

Molecules are shown by their SMILES.

Turning to `COc1cc(N(C)CCOc2ccc(CC3SC(=O)NC3=O)cc2)nc(OC)n1` (centres unmarked) [Example 4, 5-(4-{2-{(2,6-Dimethoxypyrimidin-4-yl)-methyl-amino]-ethoxy}-benzyl)-thiazolidine-2,4-dione], the inhibition in vivo (in general, the change of the read-out against control, counted positive when it falls) at 1 mg/kg in experiment [1] was found to be 53%.

With `CN(CCOc1ccc(CC2SC(=O)NC2=O)cc1)c1cc(Cl)nc(N)n1` (centres unmarked) [Example 3, 5-(4-{2-[(2-amino-6-chloropyrimidin-4-yl)-methyl-amino]-ethoxy}-benzyl)-thiazolidine-2,4-dione], at 1 mg/kg the inhibition in vivo in experiment [1] was 47%.

The compound `CN(CCOc1ccc(CC2SC(=O)NC2=O)cc1)c1ccncn1` (centres unmarked) [Example 20, 5-{4-[2-(Methylpyrimidin-4-yl-amino)ethoxy]benzyl}-thiazolidine-2,4-dione] returned an inhibition in vivo at 5 mg/kg in experiment [1] of 21%.

In turn, `CN(CCOc1ccc(CC2SC(=O)NC2=O)cc1)c1cc(O)ncn1` (centres unmarked) [Example 22, 5-(4-{2-[(6-Hydroxypyrimidin-4-yl)-methylamino]-ethoxy}-benzyl)-thiazolidine-2,4-dione] displayed an inhibition in vivo at 5 mg/kg in experiment [1] of 22%.

The compound `Cc1c(C)c2c(c(C)c1O)CCC(C)(COc1ccc(CC3SC(=O)NC3=O)cc1)O2` (centres unmarked) [Troglitazone] gave an inhibition in vivo at 100 mg/kg in experiment [2] of 38%.

Compound `CN(CCOc1ccc(CC2SC(=O)NC2=O)cc1)c1ncnc2nc[nH]c12` (centres unmarked) [Example 7, 5-(4-{2-[Methyl-(7H-purin-6-yl)-amino]-ethoxy}-benzyl)-thiazolidine-2,4-dione] had an inhibition in vivo at 10 mg/kg in experiment [1] of 47%.

In experiment [1], `CN(CCOc1ccc(CC2SC(=O)NC2=O)cc1)c1ncnc2c1ncn2C` (centres unmarked) [Example 12, 5-(4-{2-[Methyl-(9-methyl-9H-purin-6-yl)-amino]-ethoxy}-benzyl)-thiazolidine-2,4-dione] had an inhibition in vivo at 10 mg/kg of 25%.

`CN(C)c1cc(N(C)CCOc2ccc(CC3SC(=O)NC3=O)cc2)ncn1` (centres unmarked) [Example 21, 5-(4-{2-[(6-Dimethylaminopyrimidin-4-yl)-methylamino]-ethoxy}-benzyl)-thiazolidine-2,4-dione]: 25 mg/kg produced 36% inhibition in vivo in experiment [1] (25 mg/kg p.o.).

Consider `CN(CCOc1ccc(CC2SC(=O)NC2=O)cc1)c1cc(Cl)ncn1` (centres unmarked) [Example 14, 5-(4-{2-[(6-chloropyrimidin-4-yl)-methylamino]-ethoxy}-benzyl)-thiazolidine-2,4-dione], for which the inhibition in vivo at 1 mg/kg in experiment [1] worked out at 51%.

`CN(CCOc1ccc(CC2SC(=O)NC2=O)cc1)c1ncnc2c1ncn2C1OC(CO)C(O)C1O` (centres unmarked) [Example 11]: the inhibition in vivo at 10 mg/kg in experiment [1] came to 30%.

In experiment [1], `COc1cc(N(C)CCOc2ccc(CC3SC(=O)NC3=O)cc2)ncn1` (centres unmarked) [Example 17, 5-(4-{2-[(6-Methoxypyrimidin-4-yl)-methylamino]-ethoxy}-benzyl)-thiazolidine-2,4-dione] came in with an inhibition in vivo at 1 mg/kg of 48%.
